One assay concerns the target T1, ecFoID (Escherichia coli, UniProt P24186).
T1 construct: His-tag (vector pHis-TEV); made in house; host or cells: E. coli BL21 (DE3)
The assay can be described thus: FoID dehydrogenase (DH) enzyme assay. Type of assay: biochemical, E. coli. The conditions noted are these: for pKi: carolacton inhibition on DH activity, ecFoID. How it is done:
(§1) (6R,S)-5,10-Methylene-5,6,7,8-tetrahydrofolic acid ((6R,S)-5,10-CH2-THF), calcium salt and (6R,S)-5,10-Methenyl-5,6,7,8-tetrahydrofolic acid ((6R,S)-5,10-CH=THF) chloride were purchased from Schircks Laboratories (Bauma, Switzerland) and were used as substrates for FoID dehydrogenase and cyclohydrolase enzyme assays, respectively. Only the R-isomer, which accounts for 50% of (6R,S)-5,10-CH2-THF and (6R,S)-5,10-CH=THF, respectively, is used by the enzyme. (6R,S)-5,10-CH2-THF was dissolved in N2-spargeled basic buffer (50 mM Tris-HCl (pH 8.0), 100 mM β-mercaptoethanol) as described by Sah and Varshney, 2015a (6R,S)-5,10-CH=THF was first dissolved in DMSO as a 100 mM stock solution.
(§2) Because FoID is a bifunctional enzyme, dehydrogenase and cyclohydrolase activities were determined for FoID enzyme kinetics, respectively. The dehydrogenase activity of FoID was assayed for its substrate 5,10-CH2-THF and cofactor NADP+ (in the case of MTHFD2, NAD+ was used as cofactor) based on monitoring the formation of 5,10-CH=THF while the cyclohydrolase activity of FoID was determined for its substrate 5,10-CH=THF by monitoring the hydrolysis of 5,10-CH2-THF. The enzyme kinetics for the dehydrogenase activity of all FoIDs except hsMTHFD1_DC were determined at 30° C. in 50 mM Tris-HCl (pH 7.5), 30 mM β-mercaptoethanol. The hsMTHFD1_DC dehydrogenase activity was measured in 25 mM MOPS (pH 7.3), 30 mM β-mercaptoethanol at 30° C. To measure the enzyme kinetics constants for 5,10-CH2-THF, for example in the case of ecFoID, the NADP concentration was fixed at 1 mM and the concentration of 5,10-CH2-THF varied from 5 μM to 1,500 μM (R-isomer). Similarly, to measure the kinetic constants of ecFoID for NADP+, the concentration of 5,10-CH2-THF (R-isomer) was fixed at 1 mM and the concentration of NADP+ varied from 10 μM to 1,500 μM. For different FoIDs, the varied concentration range of substrates could be different. The 50 μL reactions of dehydrogenase assays were initiated by adding appropriate amounts enzyme (4 nM ecFoID, 4 nM spFoID, 15 nM hsMTHFD1_DC, 20 nM hsMTHFD2, 20 nM G8S, 20 nM Q98H, 10 nM K54N, 200 nM ΔK54R55 in the corresponding assays) and terminated with 50 μL 1 M HCl after 2 min incubation at 30° C. To monitor the formation of 5,10-CH=THF, the absorbance of the reaction mixture was monitored at 350 nm in micro UV cuvettes (BRAND, Essex, Connecticut, USA). The concentration of 5,10-CH=THF produced in the reaction was determined using an extinction co-efficient of 0.0249 μM-1 cm-1. Cyclohydrolase activity for each FoID was assayed in the same buffer as dehydrogenase activity at 30° C. but for 30 s. The concentration of FoID used in each assay was 5 nM of ecFoID, spFoID and hsMTHFD1_DC, respectively, and 2 nM of hsMTHFD2. The consumption of 5,10-CH=THF was measured by recording the absorbance of the reactions at 355 nm using the TECAN Infinite 200 PRO equipped with a monochromator. To measure the enzyme kinetic constants, different concentrations of 5,10-CH=THF (varied from […]) were used in […] reaction mixtures. The inhibition constants (Ki) of carolacton on FoID were determined by measuring the apparent Km values when adding certain amounts of carolacton to the enzyme reactions. For ecFoID, 10 nM carolacton was added in the dehydrogenase assay and 50 nM carolacton was used in the cyclohydrolase assay. For spFoID, 25 nM carolacton was added in both dehydrogenase assay and cyclohydrolase assay. For hsMTHFD1_DC, 30 nM carolacton was added in the dehydrogenase assay and 10 nM in the cyclohydrolase assay. […] To compare the inhibition effects of carolacton between the different FoIDs, the half maximal inhibitory concentration (IC50) of carolacton on the same amount of enzyme was determined for FoIDs involved in this study. The enzyme concentration used to determine dehydrogenase activity IC50 was 10 nM, and the enzyme used for cyclohydrolase IC50 measurements was 5 nM. All enzyme kinetics measurements were performed as independent triplicates. […]

The target in another assay is T2, ecFoID K54N (Escherichia coli, UniProt P24186, K54N).
T2 construct: made in house; host or cells: E. coli BL21 (DE3)
The assay can be described thus: FoID dehydrogenase (DH) enzyme assay. The format is biochemical, E. coli. How it is done: as §1, §2

A further assay deals with T3, ecFoID ΔK54R55 (Escherichia coli, UniProt P24186, DEL54-55).
T3 construct: made in house; host or cells: E. coli BL21 (DE3)
The assay can be described thus: FoID dehydrogenase (DH) enzyme assay. Type of assay: biochemical, E. coli. How it is done: as §1, §2

For another assay, the target named is T4, hsMTHFD1 DC301 (Homo sapiens, UniProt P11586).
T4 construct: We therefore expressed and purified hsMTHFD2 and hsMTHFD1_DC to test them biochemically; His-tag (vector pHis-TEV); made in house; host or cells: E. coli BL21 (DE3)
T4 sequence (P11586 2-291 limits assumed): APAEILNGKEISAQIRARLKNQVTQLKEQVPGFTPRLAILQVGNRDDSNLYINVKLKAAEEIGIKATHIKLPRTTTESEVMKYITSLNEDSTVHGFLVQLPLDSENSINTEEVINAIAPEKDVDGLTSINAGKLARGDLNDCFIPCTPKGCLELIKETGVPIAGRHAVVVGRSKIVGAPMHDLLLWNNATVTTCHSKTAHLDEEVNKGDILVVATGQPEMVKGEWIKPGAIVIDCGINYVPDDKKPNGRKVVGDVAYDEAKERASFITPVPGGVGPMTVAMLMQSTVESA
The assay can be described thus: FoID cyclohydrolase (CYH) enzyme assay. The format is biochemical. The procedure: as §1
(§3) Because FoID is a bifunctional enzyme, dehydrogenase and cyclohydrolase activities were determined for FoID enzyme kinetics, respectively. The dehydrogenase activity of FoID was assayed for its substrate 5,10-CH2-THF and cofactor NADP+ (in the case of MTHFD2, NAD+ was used as cofactor) based on monitoring the formation of 5,10-CH=THF while the cyclohydrolase activity of FoID was determined for its substrate 5,10-CH=THF by monitoring the hydrolysis of 5,10-CH2-THF. The enzyme kinetics for the dehydrogenase activity of all FoIDs except hsMTHFD1_DC were determined at 30° C. in 50 mM Tris-HCl (pH 7.5), 30 mM β-mercaptoethanol. The hsMTHFD1_DC dehydrogenase activity was measured in 25 mM MOPS (pH 7.3), 30 mM β-mercaptoethanol at 30° C. To measure the enzyme kinetics constants for 5,10-CH2-THF, for example in the case of ecFoID, the NADP concentration was fixed at 1 mM and the concentration of 5,10-CH2-THF varied from 5 μM to 1,500 μM (R-isomer). Similarly, to measure the kinetic constants of ecFoID for NADP+, the concentration of 5,10-CH2-THF (R-isomer) was fixed at 1 mM and the concentration of NADP+ varied from 10 μM to 1,500 μM. For different FoIDs, the varied concentration range of substrates could be different. […] To monitor the formation of 5,10-CH=THF, the absorbance of the reaction mixture was monitored at 350 nm in micro UV cuvettes (BRAND, Essex, Connecticut, USA). The concentration of 5,10-CH=THF produced in the reaction was determined using an extinction co-efficient of 0.0249 μM-1 cm-1. […] The consumption of 5,10-CH=THF was measured by recording the absorbance of the reactions at 355 nm using the TECAN Infinite 200 PRO equipped with a monochromator. […] The inhibition constants (Ki) of carolacton on FoID were determined by measuring the apparent Km values when adding certain amounts of carolacton to the enzyme reactions. […] To compare the inhibition effects of carolacton between the different FoIDs, the half maximal inhibitory concentration (IC50) of carolacton on the same amount of enzyme was determined for FoIDs involved in this study. […]

The next assay deals with T5, hsMTHFD2 (Homo sapiens, UniProt P13995).
T5 construct: His-tag (vector pHis-TEV); made in house; host or cells: E. coli BL21 (DE3)
T5 sequence (P13995 36-350): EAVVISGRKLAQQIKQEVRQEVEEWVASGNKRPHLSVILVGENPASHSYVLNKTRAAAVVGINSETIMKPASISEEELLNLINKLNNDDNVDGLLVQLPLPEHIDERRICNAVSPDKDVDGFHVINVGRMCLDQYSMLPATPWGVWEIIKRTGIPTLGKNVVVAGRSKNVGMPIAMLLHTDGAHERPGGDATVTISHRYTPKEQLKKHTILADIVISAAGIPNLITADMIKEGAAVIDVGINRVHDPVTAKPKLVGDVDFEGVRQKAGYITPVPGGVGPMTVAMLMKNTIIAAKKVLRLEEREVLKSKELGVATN
Description: FoID cyclohydrolase (CYH) enzyme assay. Type of assay: biochemical. How it is done:
as §1, §3

[1] abbreviates: 5 nM enzyme, read-out: IC50, carolacton inhibition on CYH activity.
Setting [2] is: vs 5,10-CH=THF, read-out: Ki (5,10-CH═THF), carolacton inhibition on CYH activity.

pIC50, pKi: −log10 of the molar value. Several values for one entry are separate records, joined by “and”; a condition that tells them apart may be missing. Equal entries are not always repeated.

Regarding `CO[C@H](CC(=O)O)[C@@H](C)C(=O)[C@H](C)/C=C(\C)[C@H]1OC(=O)[C@H](O)[C@H](O)/C=C/[C@H](C)CCC[C@@H]1C` [Carolacton, carolacton], the pIC50 – broadly, the negative decadic logarithm of the IC50, by convention in mol/L – against ecFoID is 7.81; on hsMTHFD1 DC301 (setting [1]) it was 7.71; at hsMTHFD2 (setting [1]), 7.07. In addition, the pKi (as a rule, the Ki on a negative log10 scale, so that one unit is a factor of ten) at ecFoID (Ki (5,10-CH2—THF), vs 5,10-CH2-THF) was 7.68 and 7.67; at ecFoID (Ki (NADP^+), vs cofactor NADP+) it was 7.96; at hsMTHFD1 DC301 (setting [2]) it was 7.69; on hsMTHFD2 (setting [2]), 7.90. In addition, the “sensitivity of residual DH activity to carolacton” value on ecFoID K54N and at ecFoID ΔK54R55 was “completely insensitive” throughout.

Values taken from patent publication US11357752B2, “Carolacton and derivatives thereof for use in the treatment of cell proliferation disorders” (Helmholtz-Zentrum für Infektionsforschung GmbH, priority 2017, dated 2022).
